# Reference: patent US10604509B2, “Nrf2 regulators” (GlaxoSmithKline Intellectual Property Development Limited, priority 2015, dated 2020)
# Where a name gives a salt, the structure may show the parent alone.
# Tested on: NQO1 specific enzyme activity in BEAS-2B cells
# Assay: BEAS-2B NQO1 MTT assay
# Type: cell-based
# Conditions: BEAS-2B cells, 48 hours with compound, MTT readout; read-out: EC50 of NQO1 specific activity induction
# How it was run: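 NQO1 specific activity, an NRF2 activation marker, read kinetically as absorbance change at 570 nm for 30 min after MTT cocktail addition to crude lysates of BEAS-2B cells exposed 48 h to compound. Three-parameter fit of Delta OD/min against log concentration gives EC50; lysate portion used for Cell Titer Glo.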
row,SMILES,EC50
1,"CC[C@@H]1CN(Cc2cc(C(CCc3cn(CC)nn3)C(C)C(=O)O)ccc2C)Cc2ccccc2O1 (single isomer, unassigned; isomer 2) [Example 119]",10 to 100 nM
2,"CC[C@@H]1CN(Cc2cc(C(CCc3cn(CC)nn3)C(C)C(=O)O)ccc2C)Cc2ccccc2O1 (single isomer, unassigned; isomer 3) [Example 120]",1 to 10 nM
3,"CC[C@@H]1CN(Cc2cc(C(CCc3cn(CC)nn3)C(C)(C)C(=O)O)ccc2C)Cc2ncccc2O1 (single isomer, unassigned) [Example 252]",10 to 100 nM

# Same assay, conditions: Homo sapiens, BEAS-2B, 48 h, BEAS-2B cells, 48 hours with compound, MTT readout; read-out: EC50 of NQO1 specific activity induction
row,SMILES,EC50
1,"Cc1ccc([C@H](c2ccc3c(nnn3C)c2C)C(C)(C)C(=O)O)cc1Cc1cnnn1CC1CCCCCC1 (single isomer, unassigned) [Example 242]",10 to 100 nM
2,"CC[C@@H]1CN(Cc2cc(C(CC(=O)O)c3ccc4c(nnn4C)c3C)ccc2C)Cc2c(F)cccc2O1 (stereo partly drawn) [Example 83, 3-(1,4-Dimethyl-1H-benzo[d][1,2,3]triazol-5-yl)-3-(3-(((R)-2-ethyl-6-fluoro-2,3-dihydrobenzo[f][1,4]oxazepin-4(5H)-yl)methyl)-4-methylphenyl)propanoic acid]",100 to 1000 nM
3,"CCC1CN(Cc2cc([C@H](CC(=O)O)c3ccc4c(nnn4C)c3C)ccc2C)Cc2ccccc2O1 (stereo partly drawn) [Example 5, (3S)-3-(1,4-Dimethyl-1H-benzo[d][1,2,3]triazol-5-yl)-3-(3-((2-ethyl-2,3-dihydrobenzo[f][1,4]oxazepin-4(5H)-yl)methyl)-4-methylphenyl)propanoic Acid, Trifluoroacetic Acid Salt]",10 to 100 nM
4,"CC[C@@H]1CN(Cc2cc([C@@H](CC(=O)O)c3ccc4c(nnn4C)c3C)ccc2C)Cc2cnccc2O1 [Example 43, (R)-3-(1,4-Dimethyl-1H-benzo[d][1,2,3]triazol-5-yl)-3-(3-(((R)-2-ethyl-2,3-dihydropyrido[3,4-f][1,4]oxazepin-4(5H)-yl)methyl)-4-methylphenyl)propanoic Acid, Formic Acid Salt]",1000 to 10000 nM
5,"CC[C@@H]1CN(Cc2cc([C@H](c3ccc4c(nnn4C)c3C)[C@@H](C)C(=O)O)ccc2C)Cc2ccccc2O1 [Example 40, (2R,3R)-3-(1,4-Dimethyl-1H-benzo[d][1,2,3]triazol-5-yl)-3-(3-(((R)-2-ethyl-2,3-dihydrobenzo[f][1,4]oxazepin-4(5H)-yl)methyl)-4-methylphenyl)-2-methylpropanoic Acid]",10 to 100 nM
6,"Cc1ccc([C@H](CC(=O)O)c2ccc3c(nnn3C)c2C)cc1CN1Cc2ccccc2OC(C)(C)C1 [Example 109, (S)-3-(1,4-dimethyl-1H-benzo[d][1,2,3]triazol-5-yl)-3-(3-((2,2-dimethyl-2,3-dihydrobenzo[f][1,4]oxazepin-4(5H)-yl)methyl)-4-methylphenyl)propanoic Acid, Formic Acid Salt]",100 to 1000 nM
7,"CCC1CCC(Cc2nccn2Cc2cc(C(CC(=O)O)c3ccc4c(nnn4C)c3C)ccc2C)CC1 (stereo not drawn) [Example 132, 3-(1,4-Dimethyl-1H-benzo[d][1,2,3]triazol-5-yl)-3-(3-((2-((4-ethylcyclohexyl)methyl)-1H-imidazol-1-yl)methyl)-4-methylphenyl)propanoic Acid]",1000 to 10000 nM
8,"Cc1ccc(C(c2ccc3c(nnn3C)c2C)C2(C(=O)O)CC2)cc1CN1Cc2cnccc2OC(C)(C)C1 (stereo not drawn) [Example 211, 1-((1,4-Dimethyl-1H-benzo[d][1,2,3]triazol-5-yl)(3-((2,2-dimethyl-2,3-dihydropyrido[3,4-f][1,4]oxazepin-4(5H)-yl)methyl)-4-methylphenyl)methyl)cyclopropanecarboxylic acid, Trifluoroacetic Acid Salt]",10 to 100 nM
9,"CCn1nnc2c(C)c([C@H](c3ccc(C)c(CN4Cc5ccccc5OC(C)(C)C4)c3)C(C)(C)C(=O)O)ccc21 (single isomer, unassigned; enantiomer b) [Example 207]",10 to 100 nM
10,"CC[C@@H]1CN(Cc2cc([C@@H](c3ccc4c(nnn4CC)c3F)[C@@H](C)C(=O)O)ccc2C)Cc2ncccc2O1 [Example 191, (2R,3S)-3-(3-(((R)-2-Ethyl-2,3-dihydropyrido[2,3-f][1,4]oxazepin-4(5H)-yl)methyl)-4-methylphenyl)-3-(1-ethyl-4-fluoro-1H-benzo[d][1,2,3]triazol-5-yl)-2-methylpropanoic acid]",1 to 10 nM
11,"CCC1CN(Cc2cc(C(CC(=O)O)c3ccc4c(nnn4C)c3C)ccc2C)Cc2ccc(OC)cc2O1 (stereo not drawn) [Example 84, 3-(1,4-Dimethyl-1H-benzo[d][1,2,3]triazol-5-yl)-3-(3-((2-ethyl-8-methoxy-2,3-dihdyrobenzo[f][1,4]oxazepin-4(5H)-yl)methyl)-4-methylphenyl)propanoic acid, form acid salt]",100 to 1000 nM
12,"CC[C@@H]1CN(Cc2cc([C@H](c3ccc4c(nnn4CC)c3C)[C@H](C)C(=O)O)ccc2C)Cc2cnccc2O1 [Example 197, (2S,3R)-3-(3-(((R)-2-Ethyl-2,3-dihydropyrido[3,4-f][1,4]oxazepin-4(5H)-yl)methyl)-4-methylphenyl)-3-(1-ethyl-4-methyl-1H-benzo[d][1,2,3]triazol-5-yl)-2-methylpropanoate, Sodium salt]",10 to 100 nM
13,"CC[C@@H]1CN(Cc2cc(C(c3ccc4c(c3)nnn4C)C(C)(C)C(=O)O)ccc2C)Cc2ccccc2O1 (stereo partly drawn) [Example 103, Ammonium 3-(3-(((R)-2-Ethyl-2,3-dihydrobenzo[f][1,4]oxazepin-4(5H)-yl)methyl)-4-methylphenyl)-2,2-dimethyl-3-(1-methyl-1H-benzo[d][1,2,3]triazol-5-yl)propanoate]",< 1 nM
14,"COc1ccc2c(c1)CN(Cc1cc([C@@H](CC(=O)O)c3ccc4c(nnn4C)c3C)ccc1C)CC(C)(C)O2 [Example 166, (R)-3-(1,4-Dimethyl-1H-benzo[d][1,2,3]triazol-5-yl)-3-(3-((7-methoxy-2,2-dimethyl-2,3-dihydrobenzo[f][1,4]oxazepin-4(5H)-yl)methyl)-4-methylphenyl)propanoic acid]",10 to 100 nM
15,"COc1ccc(CN(Cc2cc(C(CC(=O)O)c3ccc4c(nnn4C)c3C)ccc2C)C2CC2)cc1 (stereo not drawn) [Example 20, 3-(3-((cyclopropyl(4-methoxybenzyl)amino)meth-yl)-4-methylphenyl)-3-(1,4-dimethyl-1H-benzo[d][1,2,3]triazol-5-yl)propanoic acid, formic acid salt]",100 to 1000 nM
16,"Cc1cc2c(cn1)CN(Cc1cc(C(CC(=O)O)c3ccc4c(nnn4C)c3C)ccc1C)CC(C)(C)O2 (stereo not drawn) [Example 108, 3-(1,4-dimethyl-1H-benzo[d][1,2,3]triazol-5-yl)-3-(4-methyl-3-((2,2,8-trimethyl-2,3-dihydropyrido[3,4-f][1,4]oxazepin-4(5H)-yl)methyl)phenyl)propanoic Acid, Formic Acid Salt]",1000 to 10000 nM
17,"Cc1ccc(C(CC(=O)O)c2ccc3c(nnn3C)c2C)cc1CN(C)Cc1ccccc1Br (stereo not drawn) [Example 15, Ammonium 3-(3-(((2-bromobenzyl)(methyl)amino)methyl)-4-methylphenyl)-3-(1,4-dimethyl-1H-benzo[d][1,2,3]triazol-5-yl)propanoate]",1000 to 10000 nM

# Same assay, conditions: Homo sapiens; BEAS-2B cells, 48 hours with compound, MTT readout; read-out: EC50 of NQO1 specific activity induction
row,SMILES,EC50
1,"CC[C@@H]1CN(Cc2cc(C(c3ccc4c(nnn4C)c3C)C(C)(C)C(=O)O)ccc2C)Cc2ccccc2O1 (stereo partly drawn) [Example 114, 3-(1,4-Dimethyl-1H-benzo[d][1,2,3]triazol-5-yl)-3-(3-(((R)-2-ethyl-2,3-dihydrobenzo[f][1,4]oxazepin-4(5H)-yl)methyl)-4-methylphenyl)-2,2-dimethylpropanoic Acid, Lithium Salt]",100 to 1000 nM
